Laboratory results: patent US10238738B2, “Methods of modulating immune system responses” (priority 2014, dated 2019)

Legend:
[1] = tested on: TIFA expression; experiment: qRT-PCR of TIFA mRNA levels in Jurkat T cells; assay type: cell-based, human; settings: dependent on RelA, FIG. 13
Excerpt: FIG. 13. Shown is qRT-PCR analysis of TIFA mRNA levels in Jurkat T cells treated with HBP, flagellin, or TNFα (after knockdown of the NF-κB subunit ReIA, or treated with a scrambled shRNA (shCtrl).
RNA was isolated using an RNeasy kit (Qiagen) per manufacturers' protocol. cDNA was synthesized using the iScript cDNA synthesis kit (Bio-Rad) and treated with TURBO DNase (Life Technologies). cDNA was amplified using SsoAdvanced SYBR Green (Bio-Rad) using a C1000 thermal cycler (Bio-Rad). Target genes were amplified using the following primers: […]
(§1) Relative expression was calculated using the 2^−ΔΔCT method following normalization of target gene abundance to GAPDH. Quantitative measurements of cytokines were performed using ELISA kits form R&D Systems (KC, IL-23, IFN-β) or BD Biosciences (IL-1β, IL-8, IL-6, IL-12p70, TNF-α). Nuclear extracts were prepared from Jurkat T cells and NF-κB subunit binding was determined using the TransAM® Transcription Factor ELISA (Active Motif). Microarray

[2] = tested on: HIV gene expression from latently-infected cells; experiment: Latent HIV-1 reporter Jurkat T cell line (RG5), DsRed expression; assay type: cell-based, human; settings: FIG. 11B
Excerpt: The full-length HIV-1 molecular clone pLAl containing the following modifications was used as the reporter backbone: Avrll deletion of the 3′ end of Gag and the entire coding sequence of Pol, and a the Ndel/Stul deletion of the 3′ end of Env. The Dsred allele was cloned into the Nef reading frame using BamH1, and Xhol. Lentiviral particles were produced by co-transfection into 293T cells with pMDG.2 and psPAX2. Jurkat cells were transduced with the minimum dose required to see DsRed positive cells following treatment with 10 ng/ml TNFα. 48 hours post transfection, cells were treated HBP, and DsRed positive cells sorted by FACS. Cells were cultured for 14 days followed by DsRed negative cell sorting by FACS. 5 days later, cells were induced with HBP, and DsRed positive cells collected into 96 well plates (0.5 cells/well). Clones were individually tested for low basal DsRed expression, and high DsRed expression following treatment with both HBP and TNFα and termed RG5.
Live cells were re-suspended to 1×10^6 cells/ml in 2% FBS in PBS and analyzed using a FACSCalibur with CellQuest software (Becton Dickinson). Analysis was preformed using FlowJo software (TreeStar). Cell sorting was done using an Aria I cell sorter (Becton Dickinson).

[3] = tested on: THP-1 macrophages; experiment: qRT-PCR analysis of THP-1 macrophages treated with synthetic HBP and TLR ligands; assay type: cell-based, human; settings: 4 hr, with PAM3CSK4 or flagellin; FIG. 3c
Method: FIG. 3(c), qRT-PCR analysis of THP-1 macrophages treated with synthetic HBP (sHBP), PAM3CSK4 (PAM3), or flagellin (FLAG) for 4 hr, expressed as fold increase relative to untreated after normalization to GAPDH. Data represent ≥3 independent experiments performed in duplicate. All error bars±s.e.m. *P<0.05, **P<0.01 by ANOVA.
THP-1 cells were maintained in RPMI supplemented with 10% FBS and 1% glutamax and differentiated to macrophages with 50 ng/ml PMA for 48 hr, followed by a 48 hr rest period prior to stimulation. […] Results are expressed as fold change compared to untreated.

[4] = tested on: TRAF2; experiment: FLAG-TIFA immunoprecipitation and immunoblot for TRAF2; assay type: cell-based, human; settings: HBP treatment; FIG. 16a
Method: FLAG-TIFA was immunoprecipitated from Jurkat cells using FLAG M2 agarose beads (Sigma) as described previously (Chen and Gingras, 2007). Briefly, cells were lysed in 50 mM Hepes-KOH pH 8.0, 100 mM KCl, 2 mM EDTA, 0.1% NP40, 10% glycerol. Soluble cell lysates were pre-cleared for 2 hr with mouse IgG agarose (Sigma) and immunoprecipitated overnight at 4° C. Proteins eluted using 0.5 M NH4OH pH 11 (for mass-spectrometry), or 3× FLAG-peptide (Sigma) (immunoblot analysis). TRAF6 was immunoprecipitated from Jurkat cell lysates using rabbit anti-TRAF6 (sc-72201; Santa cruz) conjugated to protein A/G PLUS-agarose (Santa cruz) and eluted in sample buffer. Whole cell lysates or immunoprecipitation eluates were immunoblotted with the following antibodies: M2 anti-FLAG (Sigma), rabbit anti-FLAG (Sigma), mouse anti-TRAF6 (sc-8409; Santa Cruz), rabbit anti-TRAF2 (sc-876), mouse anti-ubiquitin (sc-8017; Santa cruz), mouse anti-beta actin (Sigma). For phosphopeptide analysis, FLAG-TIFA was excised from the gel, subject to in-gel trypic digestion, followed by treatment with cyanogen bromide (Sigma) in 70% TFA and analyzed by LC/MS/MS. Data were analyzed by Scaffold PTM (Proteome).

[5] = molecular target: T1, TIFA (Homo sapiens, UniProt Q96CG3); experiment: Confocal microscopy of FLAG-TIFA with TRAF6 or Lamp2; assay type: cell-based
T1 construct: expressed in transfected cells; endogenous TIFA knocked down with a 3' UTR shRNA
T1 sequence (Q96CG3 1-184): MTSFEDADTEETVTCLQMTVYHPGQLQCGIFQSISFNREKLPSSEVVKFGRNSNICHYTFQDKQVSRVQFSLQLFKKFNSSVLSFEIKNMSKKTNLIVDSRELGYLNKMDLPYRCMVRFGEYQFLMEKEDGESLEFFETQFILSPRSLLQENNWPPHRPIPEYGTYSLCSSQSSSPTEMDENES
Method: For visualization of FLAG-TIFA and TRAF6, cells were stained overnight at 4° C. with Alexa Fluor-488 conjugated rabbit anti-FLAG (Cell Signaling) and mouse anti-TRAF6 (sc-8409; Santa Cruz), followed by 1 hour with Alexa Fluor-594 conjugated anti mouse (Life Technologies). For visualization of FLAG-TIFA and Lamp2, cells were stained overnight at 4° C. with mouse anti-FLAG (M2; Sigma) and rabbit anti-Lamp2 (ab37024; Abcam), followed by 1 hour with Alexa Fluor-488 conjugated anti-mouse (Life Technologies) and Alexa Fluor-594 conjugated anti-rabbit (Life Technologies). Slides were visualized using an LSM510 (Carl Zeiss) confocal microscope. For analysis, images were processed using ImageJ software

[6] = tested on: primary human macrophages, neutrophils, and immortalized epithelial cells; experiment: Cytokine production in primary human cells (ELISA); assay type: cell-based
Method: as §1
Whole blood was taken by venipuncture from human volunteers. Peripheral blood mononuclear cells (PBMCs) were isolated using Ficoll-Paque (GE). PBMCs (2×10^6 cells/ml) were incubated for one hour at 37° C. to allow monocytes to adhere. Following removal of non-adherent cells, monocytes were re-suspended and incubated for 7 days in RPMI 1640, 10% FBS, 1% glutamax, 1% penicillin streptomycin, containing 100 ng/ml recombinant human Granulocyte macrophage-colony stimulating factor (GM-CSF) (BioLegend). For infections, cells were detached using accutase (Sigma) and seeded at 2×10^5 cells/well in 48 well plates without antibiotics. Human neutrophils were isolated from citrated whole blood taken from healthy volunteers by venipuncture using Ficoll-Paque (GE) as described previously (McCaw et al., 2003).

For `O=P(O)(O)OC[C@@H](O)[C@H]1OC(OP(=O)(O)O)[C@@H](O)[C@@H](O)[C@@H]1O` (stereo partly drawn) [HBP, D-glycerol-D-manno-heptose-1,7-bisphosphate], the “Upregulation of TIFA expression” value [1] was “over 5 fold”, the “HIV gene expression from latently-infected cells” value [2] was “potently induce HIV gene expression” and the “Activation of THP-1 macrophages in combination with TLR ligands” value [3] was “synergistically activated THP-1 macrophages”. For the same compound, the “TIFA interaction with TRAF2” value [4] was “No interaction was observed”, the “TIFA co-localization with TRAF6” value ([5]; 293T cells, 3 hr, FIG. 16b) was “co-localized with TRAF6 in distinct foci” and the “Formation of TIFA aggregates co-localized with Lamp2” value ([5]; 293 cells, 4 hr, FIG. 21) was “induced the formation of large TIFA aggregates”. For the same compound, the “IL-8, IL-6 and TNFα production” value ([6]; 24 hr, FIG. 8a-c) was “induced IL-8, IL-6, and TNFα production” and the “Th17 polarizing cytokines IL-6 and IL-23” value ([6]; primary human macrophages) was “induced significant amounts”.
